# Key:
# [1] = system: IL12Rβ2, IL18R1, and IL18RAP gene expression in T helper cells; experiment: IL-12-induced gene expression in T helper cells (quantitative RT-PCR); assay type: cell-based, human; settings: TCR-stimulated T helper cells
# Description: The effect of compounds and methods of the present invention on IL-12-induced gene expression in T helper cells was evaluated as follows. For these studies, analyses were performed to examine the effect of compounds of the present invention on expression of three genes induced by IL-12 in T helper cells: IL12Rβ2, IL18R1, and IL18RAP. (See, e.g., Saremeva et al. (2000) J hnmunol 165:1933-1938; Rogge et al. (1997) J Exp Med 185:825-831; and Nakahira et al. (2001) J Inmunol 167:1306-1312.)
# Human cord blood naive T helper cells (AllCells LLC, Emeryville, Calif.) were stimulated (i.e., T cell receptor (TCR) stimulation) by seeding into 96-well culture dishes coated with 5 μg/ml anti-CD3 antibody (clone UCHT1, R&D Systems, Minneapolis, Minn.), and 5 μg/ml anti-CD28 antibody (clone ANC28.1/D10, Ancell Corporation, Bayport, Minn.), and cultured at 37° C., 5% CO2 in RPMI-1640 (Mediatech Inc., Herndon, Va.) containing 1% FBS, 1 U/ml penicillin-1 μg/ml streptomycin (Invitrogen Corporation, Carlsbad, California), and 50 U/ml IL-2 (Roche Diagnostics Corporation, Indianapolis, Ind.). At time of seeding, cells were cultured with media alone or with media containing 2 ng/ml IL-12 (R&D Systems, Minneapolis, Minn.) (to stimulate differentiation of the T helper cells into Th1 cells) and 10 μg/ml anti-IL-4 antibody (R&D Systems, Minneapolis, Minn.) (to block differentiation of the T helper cells into Th2 cells). Compound B or 1% DMSO (Veh) was added to the existing culture media and the cells cultured for an additional six days.
# The cells were then lysed using Cell-to-Signal lysis buffer (Applied Biosystems, Foster City, Calif.) according to the manufacturer's instructions. The cell lysates were diluted with RNAse-free and DNAse-free water and used as templates in quantitative one-step duplex RT-PCR reactions using QuantiTect Multiplex RT-PCR Kit reagents (Qiagen Inc., Valencia, Calif.) and Taqman primers and probes (Applied Biosystems, Foster City, Calif.) as follows: IL18RAP Taqman primer/probe, catalog no. HS00187256M1; IL-12Rβ2 Taqman primer/probe, catalog no. HS00155486M1; EL18R1 Taqman primer/probe, catalog no. HS00175381M1; and TBET Taqman primer/probe, catalog no. HS00203436M1. RT-PCR reactions were performed according to the manufacturers' instructions. Changes in gene expression of IL12Rβ2, IL18R1, and IL18RAP following IL-12 addition in each sample were normalized relative to 18s ribosomal RNA gene expression measured in the same sample.
# naïve T helper cells = experiment: Th1 cell differentiation: IFN-γ secretion after second and third TCR stimulation following washout; assay type: cell-based, human; settings: another series, first TCR stimulation six days with IL-12, FIG. 8
# Description: The effectiveness of compounds of the present invention at reducing Th1 differentiation was examined as follows. Th1 differentiation was induced by culturing anti-CD3 stimulated T cells in the presence of exogenous IL-12. Human cord blood naive T helper cells (AllCells LLC, Emeryville, Calif.) were stimulated (i.e., T cell receptor (TCR) stimulation) by seeding into 96-well culture dishes coated with 5 μg/ml anti-CD3 antibody (clone UCHT1, R&D Systems, Minneapolis, Minn.), and 5 μg/ml anti-CD28 antibody (clone ANC28.1/D10, Ancell Corporation, Bayport, Minn.), and cultured at 37° C., 5% CO2 in RPMI-1640 (Mediatech Inc., Hemdon, Va.) containing 1% FBS, 1 U/ml penicillin-1 μg/ml streptomycin (Invitrogen Corporation, Carlsbad, Calif.), and 50 U/ml IL-2 (Roche Diagnostics Corporation, Indianapolis, Ind.). At time of seeding, cells were cultured with media alone or with media containing 2 ng/ml IL-12 and 10 μg/ml anti-IL-4 to induce Th1 cell differentiation. […]
# The cells were then collected, washed twice with RPMI-1640 media containing 1% FBS, and counted before equal numbers of cells per well were re-stimulated (second T cell receptor (TCR) stimulation following washout of all prior treatments) by re-seeding the cells into 96-well culture dishes coated with 5 μg/ml anti-CD3 antibody and 5 μg/ml anti-CD28 antibody. […] After 24 hours the conditioned media from the cells was collected and analyzed for IFN-γ levels using a MS2400 Tissue Culture Kit (MesoScale Technologies, Gaithersburg, Md.) according to the manufacturer's instructions.
# Thirteen days after the second TCR stimulation described above, the cells were collected, washed twice with RPMI-1640 media containing 1% FBS, and counted before equal numbers of cells per well were stimulated a third time (third TCR stimulation) by re-seeding into 96-well culture dishes coated with 5 μg/ml anti-CD3 antibody and 5 μg/ml anti-CD28 antibody. […]
# In another series of experiments, the effectiveness of compounds of the present invention at reducing Th1 differentiation was determined. […]
# [2] = absence of IL-12, six days, normalized to 18s ribosomal RNA
SMILES,"gene expression of IL12Rβ2 [1, 2]","gene expression of IL18R1 [1, 2]","gene expression of IL18RAP [1, 2]","IL-12-mediated increase in IL12Rβ2 gene expression ([1]; presence of IL-12, six days)","IL-12-mediated increase in IL18R1 gene expression ([1]; presence of IL-12, six days)","IL-12-mediated increase in IL18RAP gene expression ([1]; presence of IL-12, six days)",IFN-γ secretion following the second TCR stimulation (naïve T helper cells)
"O=C(O)CNC(=O)c1ncc2cc(Oc3ccccc3)ccc2c1O [Compound B, [(4-Hydroxy-7-phenoxy-isoquinoline-3-carbonyl)-amino]-acetic acid]",decrease,decrease,decrease,reduced,reduced,reduced,
"Cc1ccc(Cl)c2cnc(C(=O)NCC(=O)O)c(O)c12 [Compound D, [(8-Chloro-4-hydroxy-5-methyl-isoquinoline-3-carbonyl)-amino]-acetic acid]",,,,,,,reduced IFN-γ secretion

# Source: patent US20100144737A1, “METHODS FOR INHIBITING T HELPER CELL DIFFERENTIATION” (FibroGen, Inc., priority 2008, published 2010)
